Converted amounts (≈) assume the structure as drawn.

This passage reports MIC results from US5593984A, “Cephalosporin derivatives” (Yuhan Corporation, priority 1992, dated 1997).

Format in all cases: cell-based
For one assay, the system named is B. subtilis ATCC 6633. Briefly: MIC by agar dilution, B. subtilis ATCC 6633. The conditions noted are these: Bacillus subtilis, ATCC6633, 17 h; B. subtilis ATCC 6633; agar dilution, Mueller-Hinton agar; read-out: Minimal Inhibitory Concentration (MIC). As for the experimental part:
(§1) These MIC values were determined by agar dilution method: that is, two-fold dilutions of each of the test compounds were made and dispersed in a Mueller-Hinton agar medium; standard test strain which had the 10^6 CFU (Colony Forming Unit) per ml was inoculated on the medium with microplanter (Toyo, Japan), and incubated at 35°-37° C. for 17±1 hours. The structures of Ceftazidime (CAZ) and Cefotaxime (CTX) which are used as control compounds are as follows: [drawing 12]

The test system of another assay is Staph. aureus ATCC 6538P. Briefly: MIC by agar dilution, Staph. aureus ATCC 6538P. The conditions noted are these: Staphylococcus aureus, ATCC6538P, 17 h; Staph. aureus ATCC 6538P; agar dilution, Mueller-Hinton agar; read-out: Minimal Inhibitory Concentration (MIC). The protocol: as §1
A general note: Agar dilution tests growth on a series of plates holding different concentrations.

For another assay, the system named is Staph. aureus Smith. Put plainly: MIC by agar dilution, Staph. aureus Smith. The conditions noted are these: Staphylococcus aureus, 17 h, Mueller-Hinton agar, read-out: Minimal Inhibitory Concentration (MIC). As for the experimental part:
as §1

Another assay deals with Staph. aureus C-57. Briefly: MIC by agar dilution, Staph. aureus C-57. The conditions noted are these: Staphylococcus aureus, C57, 17 h, Mueller-Hinton agar, read-out: Minimal Inhibitory Concentration (MIC). The protocol:
as §1

For the next assay, the system named is Staph. aureus C-5113. Put plainly: MIC by agar dilution, Staph. aureus C-5113. The conditions noted are these: Staphylococcus aureus, C5113, 17 h, Mueller-Hinton agar, read-out: Minimal Inhibitory Concentration (MIC). As for the experimental part: as §1
In the next assay the test system is Staph. aureus C-5216. Briefly: MIC by agar dilution, Staph. aureus C-5216. The conditions noted are these: Staphylococcus aureus, C5216, 17 h, Mueller-Hinton agar, read-out: Minimal Inhibitory Concentration (MIC). The protocol: as §1
Assay [1] concerns S. epidermidis ATCC 12228. Briefly: MIC by agar dilution, S. epidermidis ATCC 12228. The conditions noted are these: Staphylococcus epidermidis, ATCC12228, 17 h; S. epidermidis ATCC 12228; agar dilution, Mueller-Hinton agar; read-out: Minimal Inhibitory Concentration (MIC). As for the experimental part:
as §1

The test system of the next assay is Ent. aerogenes IFO 12979. Briefly: MIC by agar dilution, Ent. aerogenes IFO 12979. The settings on record: Klebsiella aerogenes, IFO12979, 17 h, Mueller-Hinton agar, read-out: Minimal Inhibitory Concentration (MIC). The protocol:
as §1

Another assay has as its system Ent. cloacae IFO 13535. Briefly: MIC by agar dilution, Ent. cloacae IFO 13535. The settings on record: Enterobacter cloacae, IFO13535, 17 h; Ent. cloacae IFO 13535; agar dilution, Mueller-Hinton agar; read-out: Minimal Inhibitory Concentration (MIC). The protocol: as §1
The next assay deals with E. coli NIHJ JC-2. Briefly: MIC by agar dilution, E. coli NIHJ JC-2. The conditions noted are these: Escherichia coli, NIHJJC2, 17 h; E. coli NIHJ JC-2; agar dilution, Mueller-Hinton agar; read-out: Minimal Inhibitory Concentration (MIC). The protocol:
as §1

In the next assay the test system is E. coli No. 29. Briefly: MIC by agar dilution, E. coli No. 29. The conditions noted are these: Escherichia coli, 17 h; E. coli No. 29; agar dilution, Mueller-Hinton agar; read-out: Minimal Inhibitory Concentration (MIC). As for the experimental part:
as §1

Another assay relates to E. coli DY-1. Put plainly: MIC by agar dilution, E. coli DY-1. The settings on record: Escherichia coli, DY1, 17 h; E. coli DY-1; agar dilution, Mueller-Hinton agar; read-out: Minimal Inhibitory Concentration (MIC). The protocol: as §1
A further assay relates to K. pneumoniae NCTC 9632. Put plainly: MIC by agar dilution, K. pneumoniae NCTC 9632. The settings on record: Klebsiella pneumoniae, NCTC9632, 17 h; K. pneumoniae NCTC 9632; agar dilution, Mueller-Hinton agar; read-out: Minimal Inhibitory Concentration (MIC). As for the experimental part: as §1
The test system of another assay is M. morganii DY-1. Briefly: MIC by agar dilution, M. morganii DY-1. The conditions noted are these: Morganella morganii, DY1, 17 h; M. morganii DY-1; agar dilution, Mueller-Hinton agar; read-out: Minimal Inhibitory Concentration (MIC). The protocol:
as §1

Assay [2] relates to Ps. aeruginosa ATCC 10145. Briefly: MIC by agar dilution, Ps. aeruginosa ATCC 10145. The conditions noted are these: Pseudomonas aeruginosa, ATCC10145, 17 h, Mueller-Hinton agar, read-out: Minimal Inhibitory Concentration (MIC). The protocol: as §1
Assay [3] relates to Ps. aeruginosa NCTC 10490. Briefly: MIC by agar dilution, Ps. aeruginosa NCTC 10490. The conditions noted are these: Pseudomonas aeruginosa, NCTC10490, 17 h, Mueller-Hinton agar, read-out: Minimal Inhibitory Concentration (MIC). As for the experimental part:
as §1

The next assay relates to Ps. aeruginosa DY-2. Put plainly: MIC by agar dilution, Ps. aeruginosa DY-2. The conditions noted are these: Pseudomonas aeruginosa, DY2, 17 h; Ps. aeruginosa DY-2; agar dilution, Mueller-Hinton agar; read-out: Minimal Inhibitory Concentration (MIC). The protocol: as §1
The test system of the next assay is P. vulgaris NCTC 8313. Briefly: MIC by agar dilution, P. vulgaris NCTC 8313. The conditions noted are these: Proteus vulgaris, NCTC8313, 17 h; P. vulgaris NCTC 8313; agar dilution, Mueller-Hinton agar; read-out: Minimal Inhibitory Concentration (MIC). As for the experimental part: as §1
A further assay concerns Prov. stuartii IFO 12930. Put plainly: MIC by agar dilution, Prov. stuartii IFO 12930. The conditions noted are these: Providencia stuartii, IFO12930, 17 h, Mueller-Hinton agar, read-out: Minimal Inhibitory Concentration (MIC). The protocol:
as §1

Assay [4] relates to Ser. marcescens IFO 12648. Put plainly: MIC by agar dilution, Ser. marcescens IFO 12648. The conditions noted are these: Serratia marcescens, IFO12648, 17 h; Ser. marcescens IFO 12648; agar dilution, Mueller-Hinton agar; read-out: Minimal Inhibitory Concentration (MIC). The protocol: as §1

In the case of `Nc1nc(C(=NOCF)C(=O)NC2C(=O)N3C(C(=O)[O-])=C(C[n+]4ccn5cccc5c4)CSC23)cs1` (stereo not drawn) [Ex. 6, 7-β-[(Z)-2-(2-aminothiazol-4-yl)-2-fluoromethoxyiminoacetamido]-3-(pyrrolo[1,2-a]pyrazinium-2-yl)methyl-3-cephem-4-carboxylate], the MIC was determined as 0.2 mg/L (≈ 0.376 µM) in the assay on B. subtilis ATCC 6633; 0.2 mg/L (≈ 0.376 µM) in the assay on Staph. aureus ATCC 6538P; 0.39 mg/L (≈ 0.734 µM) in the assay on Staph. aureus Smith; 25 mg/L (≈ 47 µM) in the assay with Staph. aureus C-57; 1.56 mg/L (≈ 2.93 µM) in the assay with Staph. aureus C-5113; 0.78 mg/L (≈ 1.47 µM) in the assay on Staph. aureus C-5216. The MIC in assay [1] is 0.1 mg/L (≈ 0.188 µM); in the assay on Ent. aerogenes IFO 12979 it was 0.012 mg/L (≈ 0.0226 µM); with Ent. cloacae IFO 13535, 0.05 mg/L (≈ 0.0941 µM); in the assay with E. coli NIHJ JC-2 it was 0.012 mg/L (≈ 0.0226 µM); with E. coli No. 29, at most 0.006 mg/L; with E. coli DY-1 it was at most 0.006 mg/L. The MIC in the assay on K. pneumoniae NCTC 9632 was 0.012 mg/L (≈ 0.0226 µM); in the assay with M. morganii DY-1, at most 0.006 mg/L; in [2], 0.39 mg/L (≈ 0.734 µM); in assay [3], 0.2 mg/L (≈ 0.376 µM); with Ps. aeruginosa DY-2 it was 3.13 mg/L (≈ 5.89 µM); in the assay on P. vulgaris NCTC 8313, at most 0.006 mg/L. Besides, the MIC with Prov. stuartii IFO 12930 was at most 0.006 mg/L; in [4] it was 0.012 mg/L (≈ 0.0226 µM).
Regarding `CCON=C(C(=O)NC1C(=O)N2C(C(=O)[O-])=C(C[n+]3ccn4c(SCCO)ccc4c3)CSC12)c1csc(N)n1` (stereo not drawn) [Ex. 9, 7-β-[(Z)-2-(2-aminothiazol-4-yl)-2-ethoxyiminoacetamido]-3-[6-(2-HYDROXYETHYLTHIO)PYRROLO[1,2-a]pyrazinium-2-yl]methyl-3-cephem-4-carboxylate], the MIC worked out at 0.1 mg/L (≈ 0.166 µM) in the assay on B. subtilis ATCC 6633; 0.1 mg/L (≈ 0.166 µM) with Staph. aureus ATCC 6538P; 0.1 mg/L (≈ 0.166 µM) in the assay with Staph. aureus Smith; 12.5 mg/L (≈ 20.7 µM) in the assay with Staph. aureus C-57; 0.39 mg/L (≈ 0.646 µM) with Staph. aureus C-5113; 0.78 mg/L (≈ 1.29 µM) in the assay on Staph. aureus C-5216. Further, the MIC was 0.05 mg/L (≈ 0.0828 µM) in assay [1]; 0.05 mg/L (≈ 0.0828 µM) in the assay on Ent. aerogenes IFO 12979; 0.2 mg/L (≈ 0.331 µM) in the assay on Ent. cloacae IFO 13535; 0.025 mg/L (≈ 0.0414 µM) in the assay with E. coli NIHJ JC-2; at most 0.006 mg/L in the assay on E. coli No. 29; at most 0.006 mg/L in the assay on E. coli DY-1. Moreover, the MIC in the assay with K. pneumoniae NCTC 9632 is 0.025 mg/L (≈ 0.0414 µM); in the assay with M. morganii DY-1, 0.012 mg/L (≈ 0.0199 µM); in [2], 3.13 mg/L (≈ 5.18 µM); in [3] it was 0.2 mg/L (≈ 0.331 µM); in the assay with Ps. aeruginosa DY-2, 3.13 mg/L (≈ 5.18 µM); with P. vulgaris NCTC 8313, at most 0.006 mg/L. Also, the MIC with Prov. stuartii IFO 12930 stood at 0.025 mg/L (≈ 0.0414 µM); in assay [4], 0.05 mg/L (≈ 0.0828 µM).
As for `CO/N=C(\C(=O)N[C@@H]1C(=O)N2C(C(=O)[O-])=C(C[n+]3ccn4c(C#N)ccc4c3C)CS[C@H]12)c1csc(N)n1` [Ex. 43, 7-β-[(Z)-2-(2-aminothiazol-4-yl)-2-methoxyiminoacetamido]-3-(1-methyl-6-cyanopyrrolo[1,2-a]pyrazinium-2-yl)methyl-3-cephem-4-carboxylate], the MIC in the assay on B. subtilis ATCC 6633 was found to be 0.2 mg/L (≈ 0.362 µM); with Staph. aureus ATCC 6538P, 0.1 mg/L (≈ 0.181 µM); in the assay with Staph. aureus Smith it was 0.78 mg/L (≈ 1.41 µM); in the assay with Staph. aureus C-57 it was 12.5 mg/L (≈ 22.6 µM); in the assay with Staph. aureus C-5113, 1.56 mg/L (≈ 2.82 µM); with Staph. aureus C-5216, 0.78 mg/L (≈ 1.41 µM). Further, the MIC is 0.012 mg/L (≈ 0.0217 µM) in [1]; 0.012 mg/L (≈ 0.0217 µM) with Ent. aerogenes IFO 12979; 0.2 mg/L (≈ 0.362 µM) in the assay with Ent. cloacae IFO 13535; 0.025 mg/L (≈ 0.0452 µM) in the assay on E. coli NIHJ JC-2; 0.05 mg/L (≈ 0.0905 µM) in the assay with E. coli No. 29; 0.012 mg/L (≈ 0.0217 µM) in the assay on E. coli DY-1. In addition, the MIC in the assay on K. pneumoniae NCTC 9632 was 0.1 mg/L (≈ 0.181 µM); in the assay on M. morganii DY-1, 0.05 mg/L (≈ 0.0905 µM); in assay [2], 0.78 mg/L (≈ 1.41 µM); in [3], 0.78 mg/L (≈ 1.41 µM); with Ps. aeruginosa DY-2, 12.5 mg/L (≈ 22.6 µM); in the assay on P. vulgaris NCTC 8313, at most 0.006 mg/L. The MIC came to 0.012 mg/L (≈ 0.0217 µM) with Prov. stuartii IFO 12930 and 0.05 mg/L (≈ 0.0905 µM) in assay [4].
